Laboratory results taken from PMC9076199 (RSC Advances, 2019).

Tests used:
[1] = biological target: T1, human carboxylesterase 2 (CES2) (Homo sapiens, UniProt O00748); test: Inhibition of CES2-mediated FD; type: biochemical; details: for selectivity for CES2 over CES1 (in words): CES2 versus CES1 IC50
T1 sequence (O00748 27-559): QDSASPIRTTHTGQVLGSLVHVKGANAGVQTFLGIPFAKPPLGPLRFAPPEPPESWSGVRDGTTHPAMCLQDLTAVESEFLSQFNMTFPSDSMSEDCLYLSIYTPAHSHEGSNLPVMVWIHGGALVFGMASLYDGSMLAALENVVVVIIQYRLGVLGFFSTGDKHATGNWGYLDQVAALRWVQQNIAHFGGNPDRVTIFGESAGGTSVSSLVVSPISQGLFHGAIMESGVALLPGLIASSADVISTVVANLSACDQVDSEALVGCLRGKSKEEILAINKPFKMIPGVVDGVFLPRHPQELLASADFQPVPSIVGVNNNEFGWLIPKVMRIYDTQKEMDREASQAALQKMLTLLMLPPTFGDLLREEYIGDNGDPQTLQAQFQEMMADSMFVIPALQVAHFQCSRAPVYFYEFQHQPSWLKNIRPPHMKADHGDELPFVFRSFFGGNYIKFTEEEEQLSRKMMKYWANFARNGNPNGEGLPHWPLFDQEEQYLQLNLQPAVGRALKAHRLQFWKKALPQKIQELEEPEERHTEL

[2] = biological target: T2, human carboxylesterase 1 (CES1) (Homo sapiens, UniProt P23141); test: Inhibition of CES1-mediated DME; type: biochemical
T2 sequence (P23141 18-567): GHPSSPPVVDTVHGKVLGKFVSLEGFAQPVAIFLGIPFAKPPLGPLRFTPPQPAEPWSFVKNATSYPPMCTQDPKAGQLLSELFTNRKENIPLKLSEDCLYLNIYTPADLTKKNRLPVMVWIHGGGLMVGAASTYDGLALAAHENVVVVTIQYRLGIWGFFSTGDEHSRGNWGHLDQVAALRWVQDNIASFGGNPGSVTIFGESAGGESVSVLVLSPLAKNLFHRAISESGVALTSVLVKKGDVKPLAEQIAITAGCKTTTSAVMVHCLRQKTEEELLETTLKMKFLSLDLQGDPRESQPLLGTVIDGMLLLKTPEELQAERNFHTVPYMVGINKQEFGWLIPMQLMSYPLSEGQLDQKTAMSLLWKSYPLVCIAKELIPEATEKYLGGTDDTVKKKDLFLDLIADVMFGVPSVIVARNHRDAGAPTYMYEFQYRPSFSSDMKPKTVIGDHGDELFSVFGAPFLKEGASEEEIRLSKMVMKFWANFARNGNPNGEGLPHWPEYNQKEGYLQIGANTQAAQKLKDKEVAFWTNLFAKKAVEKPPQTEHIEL

Structure (SMILES) | IC50 [1] | selectivity for CES2 over CES1 (in words) [1] | IC50 [2]
Cc1ccccc1C(c1c(C)[nH]c2ccccc12)c1c(C)[nH]c2ccccc12 [4b] | 560 ± 160 nM |  | 
COc1ccccc1C(c1c(C)[nH]c2ccccc12)c1c(C)[nH]c2ccccc12 [4e] | 200 ± 44 nM |  | 
Cc1[nH]c2ccccc2c1C(c1ccccc1Cl)c1c(C)[nH]c2ccccc12 [4h] | 570 ± 86 nM |  | 
Cc1[nH]c2ccccc2c1C(c1cccc(Cl)c1)c1c(C)[nH]c2ccccc12 [4i] | 1230 ± 370 nM |  | 
Cc1[nH]c2ccccc2c1C(c1ccc(Cl)cc1)c1c(C)[nH]c2ccccc12 [4j] | 840 ± 230 nM |  | 
Cc1[nH]c2ccccc2c1C(c1cccc(Br)c1)c1c(C)[nH]c2ccccc12 [4l] | 3170 ± 810 nM |  | 
Cc1[nH]c2ccccc2c1C(c1ccc(Br)cc1)c1c(C)[nH]c2ccccc12 [4m] | 1210 ± 280 nM |  | 
Cc1[nH]c2ccccc2c1C(c1ccc([N+](=O)[O-])cc1)c1c(C)[nH]c2ccccc12 [4p] | 1220 ± 200 nM |  | 

The remaining lines, values ahead:

IC50 [1] | selectivity for CES2 over CES1 (in words) [1] | IC50 [2] | Structure (SMILES)
340 ± 91 nM |  |  | Cc1cccc(C(c2c(C)[nH]c3ccccc23)c2c(C)[nH]c3ccccc23)c1 [4c]
280 ± 27 nM |  |  | Cc1ccc(C(c2c(C)[nH]c3ccccc23)c2c(C)[nH]c3ccccc23)cc1 [4d]
1280 ± 240 nM |  |  | COc1cccc(C(c2c(C)[nH]c3ccccc23)c2c(C)[nH]c3ccccc23)c1 [4f]
150 ± 32 nM | good selectivity over CES1 | 2.9 ± 0.24 µM | COc1ccc(C(c2c(C)[nH]c3ccccc23)c2c(C)[nH]c3ccccc23)cc1 [4g]
350 ± 91 nM |  |  | Cc1[nH]c2ccccc2c1C(c1ccccc1Br)c1c(C)[nH]c2ccccc12 [4k]
190 ± 45 nM | good selectivity over CES1 | 3.68 ± 0.43 µM | Cc1[nH]c2ccccc2c1C(c1ccccc1[N+](=O)[O-])c1c(C)[nH]c2ccccc12 [4n]
350 ± 110 nM |  |  | Cc1[nH]c2ccccc2c1C(c1cccc([N+](=O)[O-])c1)c1c(C)[nH]c2ccccc12 [4o]
